Laboratory results from patent US20240366623A1, “COMPOSITIONS FOR PREVENTING OR TREATING CHARCOT-MARIE-TOOTH DISEASE (CMT)” (Chong Kun Dang Pharmaceutical Corp., priority 2021, published 2024).

System: C3 CMT1A mice
Experiment: Electrophysiological evaluation of sensory nerves in C3 CMT1A mice
Format: in vivo, mouse
Details: tail
Procedure: Ten-week-old CMT1A mice were prepared in the same way as shown in Experimental Example 8-1. Particularly, the mice were separated and dosed with a vehicle or drug in the same manner as in table 12, and the number of mice in each group was five mice.
To perform an electrophysiological evaluation of sensory nerves, a stimulation cathode was placed at the tip of the tail of the mouse, a recording electrode was placed on the tail proximal to the body 30 mm from the stimulation cathode, and a ground electrode was also placed on a leg of the animal. The tail was stimulated to obtain sensory nerve conduction velocity (SNCV) and sensory nerve action potential (SNAP) amplitude values.
Data were represented as mean±SEM([…]). Statistical significance between groups was tested using one-way ANOVA and post hoc analysis was performed by Dunnett's test. All statistical analyses were performed with GraphPad Prism 9.0.

**Q.** With `O=C(N1CCS(=O)(=O)CC1)N(Cc1ccc(-c2nnc(C(F)F)o2)cn1)c1ccccc1` [Compound 43, N-((5-(5-(difluoromethyl)-1,3,4-oxadiazol-2-yl)pyridin-2-yl)methyl)-N-phenylthiomorpholine-4-carboxamide 1,1-dioxide] as the compound, how does the “sensory nerve conduction velocity (SNCV)” value (10 mg/Kg PO BID eight weeks (FIG. 24)) read?
**A.** The value was “significantly increased”.

**Q.** And the “sensory nerve action potential (SNAP) amplitude” value (10 mg/Kg PO BID eight weeks (FIG. 25))?
**A.** Its value is “significantly increased”.
